Experimental data published in patent US9510593B2, “S-benzylthiouracil compounds and methods of enhancing plant root growth” (Valent BioSciences Corporation, priority 2014, dated 2016).
“Also recorded” adds a separate entry of the source. Where two headings read alike, the source gives them in different places.

Columns and labels:
Type in all cases: in vivo
rice = test: Rice pouch assay: growth of primary root and shoot; conditions: for Percent Change (rice primary root growth): compounds and water-soluble salts; for change in vivo at 10 ppm: Oryza sativa, 144 h, read-out: Percent Change in Primary Root Length in Rice; for Effect on rice root growth, in words: rice pouch assay, compared to control; for Percent Change in Primary Root Length of Rice: linkage changes
Protocol: Seeds were placed in germination pouches consisting of germination paper as an insert in a gas-permeable 16×14 cm plastic pouch (CYG Pouch; Mega International, St. Paul, Minn.). In pouch solution evaluation, S-Benzylthiouracil compounds or their salts were dissolved in a small volume of DMSO and added to sterile water with a maximum of 0.5% v/v DMSO at final dilution. The S-Benzylthiouracil solution was subsequently pipetted into the growth pouch, followed by the addition of seeds of the crop being tested. The pouches were arranged in a randomized complete block design in growth racks and placed in 19-liter polycarbonate food storage containers (Rubbermaid Commercial Products, Winchester, Va.). The sealed containers were held in an upright growth cabinet maintained at 25 C with a 12 hour light: 12 hour dark photoperiod. For rice, plants were harvested at 6 d, while in mungbean and corn, the plants were harvested at 4 d post sowing. Measurements were performed on the primary root and shoot of each seedling. The growth of the primary root of rice was examined in the pouch assay system. The results of the testing, presented as percent change in root length across all S-Benzylthiouracil compounds, are shown below.

tomato = test: Tomato petri plate assay; conditions: for Shoot Length / Root Length: 6 days after sowing; for Shoot Length: control 3.3; for Root Length: control 3.5; for change in vivo at 10 ppm: Solanum lycopersicum, 144 h, after 6 days of continuous exposure, read-out: Percent Increase (percent change in primary tomato root length); for Effect on tomato root growth, in words: continuous exposure
Protocol: For tomato, the plants were grown in disposable (150 mm) sterile plastic petri plates (Falcon, BD Biosciences, Franklin Lakes, N.J.). In the tomato assay, a single sheet of Whatman #1 filter paper was placed at the bottom of the plate, 15 tomato seeds were added, and 10 mL of treatment solution was added. At the end of 6 d, the 10 largest seedlings were selected for measurement from each plate. In each study, a minimum of 3 replicate plates were used. In tomato, several S-Benzylthiouracil compounds were tested to determine the effects on root growth.

mungbean = test: Mungbean pouch assay: growth of primary root and shoot; conditions: for change in vivo at 10 ppm: 96 h, read-out: Percent Change in Primary Root Length of Mungbean; for Effect on mungbean root (and shoot) growth, in words: mungbean pouch assay; for Shoot Length / Root Length: 4 days; for Shoot Length: control 4.9; for Root Length: control 6.1; for Percent Change in Primary Root Length: mungbean, linkage changes
Protocol: Seeds were placed in germination pouches consisting of germination paper as an insert in a gas-permeable 16×14 cm plastic pouch (CYG Pouch; Mega International, St. Paul, Minn.). In pouch solution evaluation, S-Benzylthiouracil compounds or their salts were dissolved in a small volume of DMSO and added to sterile water with a maximum of 0.5% v/v DMSO at final dilution. The S-Benzylthiouracil solution was subsequently pipetted into the growth pouch, followed by the addition of seeds of the crop being tested. The pouches were arranged in a randomized complete block design in growth racks and placed in 19-liter polycarbonate food storage containers (Rubbermaid Commercial Products, Winchester, Va.). The sealed containers were held in an upright growth cabinet maintained at 25 C with a 12 hour light: 12 hour dark photoperiod. For rice, plants were harvested at 6 d, while in mungbean and corn, the plants were harvested at 4 d post sowing. Measurements were performed on the primary root and shoot of each seedling. The growth of the primary root of mungbean was examined in the pouch assay system. The results of the testing, presented as percent change in root length across all the free S-Benzylthiouracil compounds is shown below. The following S-Benzylthiouracil compounds have benzyl substitutions as defined in Table 11 below.

[1] = 10 mg/liter, 6 days after sowing, untreated control 10.50
[2] = 30 mg/liter, 6 days after sowing, untreated control 10.50
[3] = 10 ppm (10 mg/L), benzyl ring substitutions
[4] = 10 ppm (10 mg/L), benzyl ring substitutions, vs control
[5] = 10 ppm equivalent, 6 days after sowing, control 2.96
[6] = 10 ppm equivalent, 6 days after sowing, control 8.61
[7] = 10 ppm (10 mg/L), uracil moiety substitutions
[8] = 10 ppm (10 mg/L), uracil moiety substitutions, vs control

SMILES: [K+].[O-]c1ccnc(SCc2cccc(F)c2)n1 [Compound 1 K+ salt, Potassium Salt of S-(3-Fluorobenzyl)-2-thiouracil]
- Root Length (rice; 10 mg/liter, 6 days after sowing, untreated control 9.67): 11.03 cm
- Root Length (rice; 30 mg/liter, 6 days after sowing, untreated control 9.67): 9.71 cm

SMILES: [Na+].[O-]c1ccnc(SCc2ccccc2)n1 [Compound 2 Na+ salt, Sodium Salt of S-Benzyl-2-thiouracil]
- Root Length (rice; [1]): 12.35 cm
- Root Length (rice; [2]): 13.03 cm

SMILES: Oc1ccnc(SCc2ccccc2)n1 [Compound 2, 2-[(phenylmethyl)thio]-4(3H)-pyrimidinone]
- Shoot Length (tomato; 1 ppm): 3.3 cm
- Root Length (tomato; 1 ppm): 3.8 cm
- Shoot Length (tomato; 10 ppm): 3.0 cm
- Root Length (tomato; 10 ppm): 3.8 cm
- change in vivo at 10 ppm (tomato; 10 ppm): 23%
- Effect on tomato root growth, in words (tomato): one of the most active compounds in tomato; also recorded: root length was increased in a dose-dependent fashion
- Effect on tomato root growth, in words (tomato; listed as S-Benzylthiouracil): active at promoting root growth
- Percent Change in Primary Root Length of Mungbean (mungbean; [3]): 18.9%
- change in vivo at 10 ppm (mungbean; [3]): 18.9%
- Root Length (rice; [1]): 12.44 cm
- Root Length (rice; [2]): 12.21 cm
- Root Length (rice; 1 ppm, 6 days after treatment, control 5.7): 6.7 cm
- Root Length (rice; 10 ppm, 6 days after treatment, control 5.7): 7.8 cm
- Percent Change (rice primary root growth) (rice; 10 ppm, 6 days after sowing): 15.6%
- change in vivo at 10 ppm (rice; [4]): 15.6%
- Effect on rice root growth, in words (rice): increased the root length compared to the control treatment

SMILES: Oc1ccnc(SCc2ccc(F)cc2)n1 [Compound 3]
- change in vivo at 10 ppm (tomato; 10 ppm): 2.8%
- change in vivo at 10 ppm (mungbean; [3]): 10.4%
- Shoot Length (rice; [5]): 2.59 cm
- Root Length (rice; [6]): 9.38 cm
- change in vivo at 10 ppm (rice; [4]): 13.9%

SMILES: Oc1ccnc(SCc2ccccc2F)n1 [Compound 4]
- change in vivo at 10 ppm (mungbean; [3]): 17.7%
- change in vivo at 10 ppm (rice; [4]): 13.5%

SMILES: Oc1ccnc(SCc2ccc(F)c(F)c2)n1 [Compound 5, S-(3,4-Difluorobenzyl)-2-thiouracil]
- change in vivo at 10 ppm (tomato; 10 ppm): 23.4%
- change in vivo at 10 ppm (mungbean; [3]): 17.6%
- change in vivo at 10 ppm (rice; [4]): 13.4%

SMILES: Oc1ccnc(SCc2cc(F)cc(F)c2)n1 [Compound 6, S-(3,5-Difluorobenzyl)-2-thiouracil]
- change in vivo at 10 ppm (mungbean; [3]): 3%
- change in vivo at 10 ppm (rice; [4]): 8.8%

SMILES: COc1cccc(CSc2nccc(O)n2)c1 [Compound 7]
- change in vivo at 10 ppm (mungbean; [3]): 17.5%
- change in vivo at 10 ppm (rice; [4]): 2.5%

SMILES: COc1ccc(CSc2nccc(O)n2)cc1 [Compound 8]
- change in vivo at 10 ppm (rice; [4]): 0.4%

SMILES: Cc1cccc(CSc2nccc(O)n2)c1 [Compound 9]
- change in vivo at 10 ppm (mungbean; [3]): 5.9%
- change in vivo at 10 ppm (rice; [4]): -2.3%

SMILES: Oc1cc(O)nc(SCc2ccccc2)n1 [Compound 10]
- change in vivo at 10 ppm (tomato; 10 ppm): 8.4%
- change in vivo at 10 ppm (mungbean; [7]): 5.9%
- change in vivo at 10 ppm (rice; [8]): 11.5%

SMILES: Oc1nccc(SCc2cccc(F)c2)n1 [Compound 11]
- change in vivo at 10 ppm (tomato; 10 ppm): -34.8%
- Effect on tomato root growth, in words (tomato): root growth inhibition
- change in vivo at 10 ppm (mungbean; [7]): 8.9%
- change in vivo at 10 ppm (rice; [8]): 10.6%

SMILES: CCOC(=O)c1cnc(SCc2cccc(F)c2)nc1O [Compound 12, S-(3-Fluorobenzyl)-5-carboxyethyl-2-thiouracil]
- change in vivo at 10 ppm (mungbean; [7]): -20.1%
- Effect on mungbean root (and shoot) growth, in words (mungbean): significant negative effect on root growth
- change in vivo at 10 ppm (rice; [8]): 9.5%

SMILES: Oc1nc(SCc2cccc(F)c2)nc2[nH]cnc12 [Compound 13]
- change in vivo at 10 ppm (tomato; 10 ppm): 0.8%
- Effect on tomato root growth, in words (tomato): root growth inhibition
- change in vivo at 10 ppm (mungbean; [7]): 4.5%
- change in vivo at 10 ppm (rice; [8]): 8.7%

SMILES: Cc1cc(O)nc(SCc2ccccc2C)n1 [Compound 14]
- change in vivo at 10 ppm (mungbean; [7]): 15.4%
- change in vivo at 10 ppm (rice; [8]): 8.6%

SMILES: Cc1cc(O)nc(SCc2ccccc2)n1 [Compound 15]
- Effect on tomato root growth, in words (tomato): root growth inhibition
- Shoot Length (mungbean; 1 ppm): 5.6 cm
- Root Length (mungbean; 1 ppm): 6.9 cm
- Shoot Length (mungbean; 10 ppm): 5.0 cm
- Root Length (mungbean; 10 ppm): 8.5 cm
- change in vivo at 10 ppm (mungbean; [7]): 36.2%
- Effect on mungbean root (and shoot) growth, in words (mungbean): greatest increases in mungbean root growth; also recorded: both root and shoot showed significant increases in growth
- Percent Change in Primary Root Length in Rice (rice; [8]): 7.6%
- change in vivo at 10 ppm (rice; [8]): 7.6%

SMILES: Cc1cc(O)nc(SCc2c(Cl)cccc2Cl)n1 [Compound 16, S-(2,6-Dichlorobenzyl)-6-methyl-2-thiouracil]
- change in vivo at 10 ppm (tomato; 10 ppm): -7.2%
- change in vivo at 10 ppm (mungbean; [7]): 6.6%
- Shoot Length (rice; [5]): 2.71 cm
- Root Length (rice; [6]): 9.31 cm
- change in vivo at 10 ppm (rice; [8]): 5.5%

SMILES: Fc1cccc(CSc2ncccn2)c1 [Compound 17]
- change in vivo at 10 ppm (mungbean; [7]): 11.1%
- change in vivo at 10 ppm (rice; [8]): 5.1%

SMILES: Oc1cc(O)nc(SCc2cccc(F)c2)n1 [Compound 18]
- change in vivo at 10 ppm (tomato; 10 ppm): 15.4%
- change in vivo at 10 ppm (mungbean; [7]): 11.3%
- Percent Change (rice primary root growth) (rice; 10 ppm, 6 days after sowing): 4.0%
- change in vivo at 10 ppm (rice; [8]): 4%

SMILES: Nc1ccnc(SCc2cccc(F)c2)n1 [Compound 19]
- change in vivo at 10 ppm (rice; [8]): 2.9%

SMILES: Cc1cc(O)nc(SCc2ccccc2Cl)n1 [Compound 20]
- change in vivo at 10 ppm (mungbean; [7]): 8.2%
- Shoot Length (rice; 1 ppm, 6 days after planting, control 1.7): 1.4 cm
- Root Length (rice; 1 ppm, 6 days after planting, control 5.4): 5.3 cm
- Shoot Length (rice; 2 ppm, 6 days after planting, control 1.7): 1.3 cm
- Root Length (rice; 2 ppm, 6 days after planting, control 5.4): 4.7 cm
- Shoot Length (rice; 5 ppm, 6 days after planting, control 1.7): 1.2 cm
- Root Length (rice; 5 ppm, 6 days after planting, control 5.4): 4.6 cm
- Shoot Length (rice; 10 ppm, 6 days after planting, control 1.7): 0.9 cm
- Root Length (rice; 10 ppm, 6 days after planting, control 5.4): 3.8 cm
- change in vivo at 10 ppm (rice; [8]): -6.9%
- Effect on rice root growth, in words (rice): significantly negative effect; also recorded: dose-dependent reductions in root and shoot growth

SMILES: Oc1ccnc(OCc2cccc(F)c2)n1 [Compound 21, 2-O-(3-fluorobenzyl)uracil]
- Percent Change in Primary Root Length (mungbean; 10 ppm (10 mg/L)): 9.1%
- Percent Change in Primary Root Length of Rice (rice; 10 ppm (10 mg/L), vs control): 6.0%

SMILES: Oc1ccnc(SCCc2ccccc2)n1 [Compound 22]
- Percent Change in Primary Root Length (mungbean; 10 ppm (10 mg/L)): 29.0%
- Percent Change in Primary Root Length of Rice (rice; 10 ppm (10 mg/L), vs control): 5.3%
- Effect on rice root growth, in words (rice): modest enhancements in root growth

SMILES: Oc1ccnc(SC/C=C/c2ccccc2)n1 [Compound 23]
- change in vivo at 10 ppm (tomato; 10 ppm): -15.7%
- Percent Change in Primary Root Length of Rice (rice; 10 ppm (10 mg/L), vs control): 2.3%
- Effect on rice root growth, in words (rice): modest enhancements in root growth

SMILES: Oc1ccnc(OCc2ccccc2)n1 [Compound 24, 2-O-Benzyluracil]
- Percent Change in Primary Root Length (mungbean; 10 ppm (10 mg/L)): −1.3%
- Percent Change in Primary Root Length of Rice (rice; 10 ppm (10 mg/L), vs control): 2.2%

SMILES: O=c1cc[nH]c(=O)[nH]1 [Uracil]
- change in vivo at 10 ppm (tomato; 10 ppm): -21%
